Ends that are not written are not given here.
Columns and labels:
[1] = test system: Purkinje cells cultured from embryonic mouse cerebellum; experiment: LTD of glutamate-evoked inward current in cultured Purkinje cells (glutamate test pulses paired with depolarizing steps); assay type: cell-based; details: t=40 min; TAPI-2 10 μM, GM6001 1 μM, GM6001 control compound 1 μM; n=7
Experimental: (§1) Recording and Ca^2+ imaging in cerebellar cultures. Cultures of embryonic mouse cerebellum were prepared as previously described and recordings were performed according to our previously published method (Leitges et al., Neuron 44:585-94, 2004). […]. Test pulses were delivered using negative current pulses (300-700 nA, 30-80 msec duration). LTD-inducing pairing stimuli consisted of six, 3-s-long depolarizations to 0 mV, each delivered together with a test pulse of glutamate.
(§2) Membrane currents were recorded with an Axopatch 200A amplifier, and digitized at 10 kHz for exogenous glutamate responses and 20 kHz for mEPSCs. Signals were lowpass filtered at 5 kHz (1 kHz for mEPSCs) and acquired using Axograph X software (Axograph Scientific, Sydney, Australia). Recordings in which Rinput or Rseries varied by more than 10% were excluded from the analysis. For analysis of mEPSCs, Axograph X mini analysis software was used. This detected events based on closeness of fit of the mEPSC to a sliding template. Events smaller than − ? 4 pA were discarded. A separate template was created for each recording by averaging 30 of its most unambiguous mEPSCs as selected by eye.
Other studies have shown that LTD in Purkinje cells cultured from embryonic mouse cerebellum requires activation of mGluR1, and is expressed postsynaptically as a reduction in surface AMPA receptors (Chung et al., Science 300:1751-5, 2003; Leitges et al., Neuron 44:585-94, 2004; Linden, PNAS 98:14066-71, 2001; Matsuda et al., EMBO J. 19:2765-74, 2000; Steinberg et al., Neuron 49:845-60, 2006; Wang and Linden, Neuron 25:635-47, 2000). Here, LTD was examined using a purely postsynaptic model in which iontophoretic test pulses of glutamate are applied to voltage-clamped Purkinje cells in culture. Following a baseline recording period, LTD was induced by pairing six 3 sec long depolarizing steps to 0 mV with six glutamate test pulses. When test pulses were resumed after pairing, LTD of the glutamate-evoked inward current was evident (52±9.0% of baseline at t=40 min, n=7 cells, FIG. 6A). […]

[2] = test system: cultured cerebellar Purkinje cells; experiment: Basal electrophysiological properties and Ca2+ imaging in cultured cerebellar Purkinje cells; assay type: cell-based, mouse; details: TAPI-2 10 μM; GM6001 1 μM; GM6001 control 1 μM; mean ± SEM
Experimental: as §1, §2
Bis-Fura-2 ratio imaging of intracellular free Ca^2+ in the dendritic shafts of cultured Purkinje cells was accomplished by measuring the background corrected fluorescence ratio at 340 and 380 nm excitation using a cooled CCD camera system. In these experiments, EGTA was removed from the internal saline and replaced with 100 μM bis-Fura-2.

[3] = test system: NPR cleavage at Site A (TACE); experiment: NPR cleavage assay in transfected HEK293T cells; assay type: cell-based, rat; details: TAPI-2 50 μM; GM6001 25 μM
Experimental: Cleavage Assay HEK293T cells were plated in OptiMEM (Invitrogen, Carlsbad, Calif.) containing 5% FBS onto 6-well dishes at a density of 4×10^5 cells/mL (2 mL/well) 1 day before transfection. Cells were transfected with NPR in pRK5 using LipofectAMINE 2000 (Invitrogen, Carlsbad Calif.). After 24 hr the medium was replaced with serum-free OptiMEM. […] Samples from each well were obtained at specific time points, immediately placed on ice, centrifuged at 15,000 g to remove cell debris, and then treated with 2% β-mercaptoethanol containing loading buffer. At the end of the time course, the cells were lysed with RIPA buffer, centrifuged to remove cell debris, and treated with 2% β-mercaptoethanol in loading buffer. Samples (20 μL of medium or lysate diluted to 1/5) were run on SDS-PAGE gels and analyzed by Western blotting.

[4] = target: T1, Narp (Rattus norvegicus, UniProt P97738); experiment: In vitro binding (GST pull down) with myc-Narp
T1 construct: GST-tagged GluR1-12mer (GST-G1-12mer) and myc-tagged full length Narp; made in house; host or cells: 293T cells (myc-Narp, cleared lysate); E. coli (GST fusions, pGEX-4T-2)
T1 sequence (P97738 15-432): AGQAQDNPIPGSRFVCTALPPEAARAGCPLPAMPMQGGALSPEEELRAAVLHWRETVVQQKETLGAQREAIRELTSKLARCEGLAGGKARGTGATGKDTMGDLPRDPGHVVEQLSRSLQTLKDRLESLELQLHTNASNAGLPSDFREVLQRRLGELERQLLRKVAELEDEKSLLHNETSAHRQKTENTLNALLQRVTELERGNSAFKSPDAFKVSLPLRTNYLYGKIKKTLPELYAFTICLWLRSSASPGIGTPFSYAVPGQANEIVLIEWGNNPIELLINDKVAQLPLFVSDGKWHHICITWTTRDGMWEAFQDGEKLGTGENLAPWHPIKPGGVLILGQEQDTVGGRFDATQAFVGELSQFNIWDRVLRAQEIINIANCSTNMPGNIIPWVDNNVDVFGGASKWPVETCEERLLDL
Experimental: In Vitro Binding. Polynucleotides encoding NAR fragments were subcloned into pGEX-4T-2 vector (Amersham) in the EcoRI and SalI sites. The constructs were confirmed by restriction enzyme digestion, DNA sequencing and fusion protein expression. GST-fusion proteins were purified by bacterial inoculation of one clone containing GST-fusion protein plasmid into 5 mL of LB liquid medium and cultured at 37 C overnight. Cultured bacteria was transferred into 400 mL of LB liquid medium and cultured at 30 C for 3 hours. Protein expression was induced with 5 mM IPTG and the bacteria were cultured at 30 C for another 2 hours. A bacterial pellet was collected and resuspended in 10 mL of lysis buffer (pH 7.4 PBS containing 10 mM sodium pyrophosphate, 1 mM sodium orthovanadate, 1% triton and 0.1% PMSF), sonicated for 10 seconds, 3 times at 4 C. Debris was pelleted with centrifugation at 12,000 rpm at 4 C for 10 minutes. The supernatant was incubated with Glutathione Sepharose 4B beads (Pharmacia) with agitation at 4 C for 2 hours. Beads were washed with lysis buffer+1% triton+0.1% PMSF twice; lysis buffer+PMSF twice; PBS+0.5M NaCl once; and PBS twice. The fusion protein bound beads were then used in the in vitro binding assay. Purified Narp protein preparation was accomplished by splitting 293T cells is into 100 mm culture dishes at the density of 5×10^5 cells/mL. […]

[5] = test system: GluR1; experiment: Immunocytochemical staining of surface and internalized GluR1 in cultured hippocampal neurons; assay type: cell-based; details: 50 μM DFB added 5 min before DHPG stimulation
Experimental: Immunocytochemical staining. Immunocytochemical staining of heterologous cells was performed as described (Xu et al., supra). For PMA-stimulation experiments, PMA (Sigma Cat #: P8139) at (150 nM) was added 90 minutes prior to live staining. Images were viewed and captured using Nikon E800 epifluorescence microscope fitted with a Princeton Instruments CCD camera. For live staining, neurons cultured on coverslips were incubated at 10° C. with the appropriate primary antibodies at the indicated dilutions in conditioned culture medium for 20 min. They were then washed with PBS and fixed with 4% paraformaldehyde/4% sucrose in PBS for 20 min at room temperature. Cells were permeablized with 0.2% Triton X-100 in PBS for 5 min and then blocked in 10% normal goat serum in PBS for 1 hr at room temperature. If intracellular proteins were of interest, coverslips were then incubated with antibody diluted in 10% normal goat serum for 1 hr at room temperature or overnight at 4° C. Coverslips were washed with PBS and incubated with secondary antibody conjugated to Alexa488 and Alexa555 (1:500 in 10% normal goat serum, Molecular Probes Eugene, Oreg.). Coverslips were mounted using the Prolong Antifade Kit (Molecular Probes, Eugene, Oreg.). For immunocytochemistry studies, mGluR1/5 were activated using the selective agonist (S)-DHPG (Tocris Cat.# 0805) with mGluR5 allosteric potentiator DFB (Tocris Cat.#1625). Neurons were incubated with DFB (50 μM) for 5 min and then DHPG (50 μM) for an additional 5 min in neuronal incubation medium and then transferred into the original incubation medium. […] Cells were incubated at 37° C. to allow endocytosis. At indicated time points, cells were incubated with N-terminal GluR1 mouse antibody (JH 4093; 0.2 μg/100 μl; kind gift from T. […] (to block endocytosis during staining). Cells were then processed for immunofluorescent staining as described above. An acid strip protocol was employed to measure endocytosed antibody labeled GluR1 (Snyder et al., 2001). Neurons were washed with progressively cooler NIM to slow basal endocytosis. Cells were then live labeled at 10° C. with GluR1 N-terminal antibody (0.2 μg/100 μL JH4094) antibody in NIM for 20 min. After washing unbound excess antibody, cells were incubated sequentially with DFB, DHPG, and original incubation medium at 37° C., as described above. After appropriate incubation times, cells were washed with 4° C. TBS. […] Neurons were then washed with 4° C. TBS followed by processing for immunofluorescent staining as described above. All neurons were viewed and captured using UltraVIEW spinning disk confocal microscope (PerkinElmer Life Sciences, Wellesley, Mass., USA) with a Nikon Eclipse TE 200 microscope and a 63× objective (Nikon, Melville, N.Y.). Images were acquired and saved as Tiff files with a dynamic range of 65536 grey levels (16-bit binary). Image analysis was performed using Metamorph imaging software (Universal Imaging, Downingtown, Pa.). For quantification of the punctate structures (e.g. GluR1), images were thresholded by grey value to differentiate single puncta. Segments of dendrites were selected and number of puncta was calculated per […] of length dendrite. Figures show ratios of calculated mean densities (number of puncta per unit length) from treated/control. Error bars were calculated using SEM and Gaussian error propagation. n=number of measured dendrites. Significance was determined by paired Student's T-test.

Compound	glutamate-evoked inward current after LTD induction [1]	DHPG-evoked (dendritic Ca2+ transient) [2] [nM]	Depol-evoked (dendritic Ca2+ transient) [2] [nM]	Resting Ca2+ [2] [nM]	mEPSC 10-90% rise [2] [msec]	mEPSC 50% decay [2] [ms]	mEPSC amp [2] [pA]	other results
CNC(=O)[C@H](Cc1c[nH]c2ccccc12)NC(=O)[C@@H](CC(=O)NO)CC(C)C [GM6001]	106±8.4 % of baseline	268 ± 39	557 ± 65	123 ± 27	2.0 ± 0.3	8.0 ± 0.6	25 ± 6	PMA-stimulated cleavage at Site A / secretion of LFC-NPR into the medium [3]: inhibited
CNC(=O)C(Cc1c[nH]c2ccccc12)NC(=O)C(CC(C)C)NC(=O)OC(C)(C)C (stereo not drawn) [GM6001 control compound]	48±9.8 % of baseline	277 ± 42	526 ± 55	100 ± 25	1.6 ± 0.3	7.6 ± 0.7	26 ± 6	–
GST-G1-12mer: bacteria GST-tagged GluR1-12mer (LRRQRIDISRRG; also: GST tag, end not given here)	–	–	–	–	–	–	–	pull down of myc-tagged full length Narp ([4]; GST fusion proteins): pulls down Narp
Fc1cccc(C=NN=Cc2cccc(F)c2)c1 [DFB, 3,3′-difluorobenzaldazine]	–	–	–	–	–	–	–	consistency of the DHPG-evoked response [5]: increased the consistency of the DHPG-evoked response
G1-12mer peptide: synthetic 12 amino acid GluR1 NAR1 sequence, Narp binding motif LRRQRIDISRRG (SEQ ID NO:24) (listed as Homo sapiens)	–	–	–	–	–	–	–	in vitro binding between GST-G1-NarI and Narp ([4]; synthetic peptide added): blocked

From patent US20090123940A1, “MOLECULES INVOLVED IN SYNAPTOGENESIS AND USES THEREFOR” (THE JOHNS HOPKINS UNIVERSITY, priority 2007, published 2009)
